From PubChem BioAssay AID212 (DTP/NCI, 2004)
“And” between values parts separate entries of the source, which are not always exact repeats. Equal entries are not always repeated. Inconclusive results are not listed.

Test system: BDF1 mice, colon carcinoma 38 sc, T/C %
Test: NCI In Vivo Anticancer Drug Screen. Data for tumor model Colon Carcinoma 38 (subcutaneous) in B6D2F1 (BDF1) mice
Settings: endpoint: median tumor weight (est.), higher = larger tumour
Summary of the method: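 Compound antitumor activity was assessed in mice carrying transplantable tumors. Survival or tumor size was recorded, and each value is the treated-group measurement divided by that of the vehicle-treated control group.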

[1] = dose: 12.5 mg/kg/injection, schedule: Q07DX002 (ip), vehicle: saline with Tween-80
[2] = dose: 200.0 mg/kg/injection, schedule: Q07DX002 (ip), vehicle: saline with Tween-80
[3] = dose: 12.5 mg/kg/injection, schedule: Q07DX002 (ip), vehicle: suspension in saline
[4] = dose: 25.0 mg/kg/injection, schedule: Q07DX002 (ip), vehicle: suspension in saline
[5] = dose: 50.0 mg/kg/injection, schedule: Q07DX002 (ip), vehicle: suspension in saline
[6] = dose: 100.0 mg/kg/injection, schedule: Q07DX002 (ip), vehicle: suspension in saline
[7] = dose: 12.5 mg/kg/injection, schedule: Q07DX002 (ip), vehicle: saline
[8] = dose: 25.0 mg/kg/injection, schedule: Q07DX002 (ip), vehicle: saline
[9] = dose: 200.0 mg/kg/injection, schedule: Q07DX002 (ip), vehicle: saline
[10] = dose: 400.0 mg/kg/injection, schedule: Q07DX002 (ip), vehicle: saline
[11] = dose: 50.0 mg/kg/injection, schedule: Q07DX002 (ip), vehicle: saline
[12] = dose: 100.0 mg/kg/injection, schedule: Q07DX002 (ip), vehicle: saline

## CC(=Nc1ccccc1)C1=C(O)C(Cc2ccccc2)NC1=O (stereo not given)
[1]
  T/C: 86 % of control and 105 % of control
dose: 100.0 mg/kg/injection, schedule: Q07DX002 (ip), vehicle: saline with Tween-80
  T/C: 45 % of control and 50 % of control
[2]
  T/C: 70 % of control and 82 % of control

## Oc1ccc(O)cc1
dose: 6.25 mg/kg/injection, schedule: Q07DX002 (ip), vehicle: suspension in saline
  T/C: 80 % of control
[3]
  T/C: 95 % of control
[4]
  T/C: 108 % of control
[5]
  T/C: 94 % of control
[6]
  T/C: 97 % of control

## CNc1nc(N(C)C)nc(N(C)C)n1
dose: 3.12 mg/kg/injection, schedule: Q07DX003 (ip), vehicle: saline
  T/C: 114 % of control
dose: 6.25 mg/kg/injection, schedule: Q07DX003 (ip), vehicle: saline
  T/C: 95 % of control
dose: 6.25 mg/kg/injection, schedule: Q07DX003 (ip), vehicle: water
  T/C: 89 % of control
dose: 12.5 mg/kg/injection, schedule: Q07DX003 (ip), vehicle: saline
  T/C: 121 % of control
dose: 12.5 mg/kg/injection, schedule: Q07DX003 (ip), vehicle: water
  T/C: 104 % of control
dose: 25.0 mg/kg/injection, schedule: Q07DX003 (ip), vehicle: saline
  T/C: 121 % of control
dose: 25.0 mg/kg/injection, schedule: Q07DX003 (ip), vehicle: water
  T/C: 61 % of control
dose: 50.0 mg/kg/injection, schedule: Q07DX003 (ip), vehicle: saline
  T/C: 114 % of control
dose: 50.0 mg/kg/injection, schedule: Q07DX003 (ip), vehicle: water
  T/C: 158 % of control
dose: 100.0 mg/kg/injection, schedule: Q07DX003 (ip), vehicle: water
  T/C: 108 % of control
dose: 200.0 mg/kg/injection, schedule: Q07DX003 (ip), vehicle: saline
  T/C: 32 % of control
dose: 200.0 mg/kg/injection, schedule: Q07DX003 (ip), vehicle: water
  T/C: 22 % of control

## O=c1[nH]c(=O)c2nc(-c3cccnc3)cnc2[nH]1
[7]
  T/C: 116 % of control
[8]
  T/C: 78 % of control and 81 % of control
[9]
  T/C: 80 % of control and 103 % of control
[10]
  T/C: 95 % of control and 97 % of control

## CC1(O)CC23CC(O)C4(O)C(CC(O)C4(C)C)C(C)(O)C2CCC1C3O (stereo not given)
dose: 0.25 mg/kg/injection, schedule: Q07DX002 (ip), vehicle: Klucel (hydroxypropylcellulose) (HPC)
  T/C: 102 % of control
dose: 0.5 mg/kg/injection, schedule: Q07DX002 (ip), vehicle: Klucel (hydroxypropylcellulose) (HPC)
  T/C: 53 % of control

## CC1(C)COCN1COCCOCN1COCC1(C)C
[7]
  T/C: 87 % of control
[8]
  T/C: 109 % of control and 112 % of control
[11]
  T/C: 80 % of control and 95 % of control
[12]
  T/C: 81 % of control and 88 % of control

## NC(=S)c1ncn(C2OC(CO)C(O)C2O)c1N (stereo not given)
[3]
  T/C: 114 % of control
[4]
  T/C: 80 % of control
[11]
  T/C: 106 % of control
[5]
  T/C: 87 % of control
[12]
  T/C: 118 % of control
[6]
  T/C: 67 % of control
[9]
  T/C: 259 % of control
dose: 200.0 mg/kg/injection, schedule: Q07DX002 (ip), vehicle: suspension in saline
  T/C: 56 % of control
[10]
  T/C: 226 % of control
dose: 400.0 mg/kg/injection, schedule: Q07DX002 (ip), vehicle: suspension in saline
  T/C: 67 % of control

## CCOC(=O)[C@]1(Br)CC[C@@]1(Br)C(=O)OCC
[1]
  T/C: 76 % of control
dose: 50.0 mg/kg/injection, schedule: Q07DX002 (ip), vehicle: saline with Tween-80
  T/C: 71 % of control and 75 % of control
[2]
  T/C: 78 % of control and 95 % of control and 96 % of control
dose: 400.0 mg/kg/injection, schedule: Q07DX002 (ip), vehicle: saline with Tween-80
  T/C: 79 % of control and 80 % of control and 97 % of control
dose: 800.0 mg/kg/injection, schedule: Q07DX002 (ip), vehicle: saline with Tween-80
  T/C: 113 % of control
